Assay results as given in patent publication US5236955A, “Anti-fungal agent” (Washington University, priority 1992, dated 1993).

Experiments:
C. neoformans = test: Metabolic stability of O4 and resistance in C. neoformans cultures; format: cell-based, Cryptococcus neoformans
Experimental: Cultreus of C. neoformans were exposed to a single dose of 300 μM O4 or 0.1% EtOH during mid-log phase growth (O4A, EtOH1) as in FIG. 1. Two hours later, an aliquot was removed from the culture and subjected to centrifugation at 1500×g for 10 min. The "used" O4-containing media was added to EtOH-treated cells (O4B). "Fresh" O4 was added to cells (final concentration=300 μM) that had already been exposed to O4 for 2 h (O4C). at 24 H, O4-treated cells were again pelleted and resuspended in "fresh" O4-containing media (final concentration=300 μM (O4E)). The "used" O4 media was added to a fresh culture of untreated cells (O4D) and their growth was compared to an identical population of cells treated with EtOH alone (EtOH2).
A series of tests were conducted to assess the metabolic stability of the compound (FIG. 2). Media was harvested from cells treated with a single dose of 300 μM O4 for 2 hr or for 24 hr and added to a exponentially growing culture of C. neoformans that had never been exposed to fatty acid analog. 100 fold and 10 fold decreases (respectively) in viable cell number were observed over the ensuing 2 hr (O4B and O4D in FIG. 2). […] Exponentially growing cultures were also exposed to a single 300 μM dose of O4, a single dose of 0.1% EtOH, or to no additions. Aliquots of each of the cultures were removed 4 and 24 hr later and plated on Sabouraud/agar. […]

[1] = test system: S. cerevisiae N-myristoylproteins; test: Metabolic labeling of cellular N-myristoylproteins with tritiated fatty acids; format: cell-based; conditions: tritiated analog, 1 h, 30° C.
Experimental: (§1) Cells were labeled for 1 h with fatty acids of equal specific activity. Total cellular proteins were reduced, denatured and subjected to SDS-PAGE. Gels were treated overnight with 1 N hydrocylamine (pH 10) at room temperature followed by EN^3 HANCE. Fluorography was performed at -80° C. The exposure time for all gels was identical (2 weeks) as was the total amount of cellular protein added to each lane (100 μg).
(§2) Analysis of the incorporation of exogenous fatty acids into cellular proteins--Cultures of S. cerevisiae YM2061, C. albicans B311, and C. neoformans L210425 were grown overnight at 30° C. in YPD or SAB broth. In the morning, C. albicans and C. neoformans were diluted to an A600 =0.6. All cultures were subsequently shaken at 30° C. until they achieved an A600 =1.2. A 5 ml aliquot of each culture was then incubated at 30° C. with 100 μCi/ml of either [9,10(n)^3 H]myristate (NEN Research Products, Dupont, Boston, Mass.); [6,7(n)^3 H]4-oxatetradecanoate; [9,10(n)^3 H]6-oxatetradecanoate;[9,10(n)^3 H]11-oxatetradecanoate; or [10,11(n)^3 H]13-oxatetradecanoate (the final specific activity of all tritiated fatty acids=30 Ci/mmol, their final concentration=3.3 μM). The cultures were then chilled on ice for 5 min and the cells harvested by centrifugation at 4000×g for 5 min. The pellet was washed by gentle vortexing in 1 ml of phosphate buffered saline (PBS, maintained at 4° C.). The yeast cells were then pelleted by centrifugation (as above) and broken open by vortexing with 500 μm glass beads in a 200 μl solution containing 240 mM Tris-HCl, pH 6.8, 2% SDS, 0.4% β-mercaptoethanol, 0.002% bromophenol blue, and 10% glycerol. The solution was then boiled for 5 min and cellular debris was removed by centrifugation at 12,000×g for 10 min. One hundred μg [Lowry et al., J. Biol. Chem. 193, 265-275 (1951)] of lysate protein from each sample was subjected to denaturation, reduction and electrophoresis through 12% polyacrylamide gels containing 0.1% SDS [Laemmli, Nature 227, 680-685 (1970)]. Duplicate gels were incubated overnight with 1M Tris, pH 7.4, or 1N hydroxylamine, pH 10. Fluorography was performed by treating gels with EN^3 HANCE (NEN Research Products, Dupont) and, following drying, exposing them to Kodak XAR film at -80° C.

[2] = test system: C. neoformans N-myristoylproteins; test: as above; format: cell-based; conditions: tritiated analog, 1 h, 30° C.
Experimental: as §1, §2

[3] = test system: C. albicans N-myristoylproteins; test: as above; format: cell-based; conditions: tritiated analog, 1 h, 30° C.
Experimental: as §1, §2

Question: With CCCCCCCCCCOCCC(=O)O [O4, 4-oxatetradecanoic acid] as the compound, how does the log reduction at 300 µM (C. neoformans; Cryptococcus neoformans, cells already exposed for 2 hr or 24 hr (O4C, O4E), read-out: further reduction in viable cell number on fresh 300 μM media (converted)) read?
Answer: The log reduction at 300 µM was 0.699.

Question: And the “resistance or tolerance of cells after exposure” value (C. neoformans; colonies from cultures exposed 4 and 24 hr, re-exposed to 300 μM)?
Answer: The value was “do not become resistant or tolerant”.

Question: And the “incorporation into the 55 kDa Gpal polypeptide” value [1]?
Answer: The value was “is incorporated”.

Question: And the “labeling of S. cerevisiae N-myristoylproteins versus [3H]myristate” value [1]?
Answer: Its value is “more intense labeling”.

Question: What about the “labeling of the 20 kDa Arfs” value [1] of the same compound?
Answer: The value was “comparable intensity”.

Question: And the “labeling of C. neoformans N-myristoylproteins versus [3H]myristate” value [2]?
Answer: Its value is “comparable labeling”.

Question: What about the “labeling of C. albicans N-myristoylproteins versus [3H]myristate” value [3] of the same compound?
Answer: Its value is “more intense labeling”.
